≈ marks a conversion by molar mass, not a printed value.
Test system: GAS
Details: tested with GAS

Question: Which results are given for `CC[C@H](C)[C@H](NC(=O)[C@H](CCCCN)NC(=O)[C@H](CCC(=O)O)NC(=O)[C@H](CCCCN)NC(=O)[C@H](CO)NC(=O)[C@H](CCCCN)NC(=O)[C@H](CCCNC(=N)N)NC(=O)[C@H](Cc1ccccc1)NC(=O)[C@H](Cc1ccccc1)NC(=O)[C@H](CC(=O)O)NC(=O)CNC(=O)[C@H](CC(C)C)NC(=O)[C@@H](N)CC(C)C)C(=O)NCC(=O)N[C@@H](CCCCN)C(=O)N[C@@H](CCC(=O)O)C(=O)N[C@@H](Cc1ccccc1)C(=O)N[C@@H](CCCCN)C(=O)N[C@@H](CCCNC(=N)N)C(=O)N[C@H](C(=O)N[C@H](C(=O)N[C@@H](CCC(N)=O)C(=O)N[C@@H](CCCNC(=N)N)C(=O)N[C@H](C(=O)N[C@@H](CCCCN)C(=O)N[C@@H](CC(=O)O)C(=O)N[C@@H](Cc1ccccc1)C(=O)N[C@@H](CC(C)C)C(=O)N[C@@H](CCCNC(=N)N)C(=O)N[C@@H](CC(N)=O)C(=O)N[C@@H](CC(C)C)C(=O)N[C@H](C(=O)N1CCC[C@H]1C(=O)N[C@@H](CCCNC(=N)N)C(=O)N[C@H](C(=O)N[C@@H](CCC(=O)O)C(=O)N[C@@H](CO)C(=O)O)[C@@H](C)O)C(C)C)[C@@H](C)CC)C(C)C)[C@@H](C)CC` [Synthetic LL-37 peptide]?
Answer: MBC: 16 µM (≈ 71.9 µg/mL); MIC: 16 µM (≈ 71.9 µg/mL)

From patent US12447188B2, “Compositions and methods for the antiseptic treatment of biofilms on mammalian tissue” (Avadim Health IP, Inc., priority 2019, dated 2025)
